Laboratory results published in patent publication US20120010173A1 (SEPS PHARMA N.V., priority 2009, published 2012).

Experiments:
[1] = Chemical stability in pharmaceutical solvents (weight % remaining in solution, LCMS); type: physicochemical
Description: (§1) Table 4 provides the chemical stability data in some pharmaceutical solvents, expressed as the weight percentage (% w/w) of the final fosfluconazole derivative produced and characterized in example 1 that remained in solution after a certain period of time. The test was carried out twice, and the remaining weight % was determined by Liquid Chromatography-Mass Spectrometry (LCMS).
as §1, with “5” for “4”, “solvents at 25° C.,” for “solvents,”, “2” for “1”
as §1, with “6” for “4”, “solvents at 25° C.,” for “solvents,”, “3” for “1”
as §1, with “7” for “4”, “4” for “1”
as §1, with “8” for “4”, “5” for “1”
as §1, with “9” for “4”, “6” for “1”
as §1, with “10” for “4”, “14” for “1”

[2] = Solubility of fosfluconazole derivatives in pharmaceutical solvents (Table 2); type: physicochemical; settings: thermodynamic from solid
Description: The solubility determination method used was as follows: a suspension of 6 mg of the tested fosfluconazole derivative in 500 μl of the applicable pharmaceutical solvent was rotatively shaken for 24 hours at 800 rpm at 25° C. The saturated fosfluconazole derivative solution was filtered (0.45 μm) and 150 μl of the filtrate was diluted in dimethylsulfoxide (50 μl DMSO). This solution was assayed, each assay being carried out in three-fold, by measurement with Liquid Chromatography-Mass Spectrometry (LCMS, 1 μl and 10 μl injection). Standards were prepared by dissolving the corresponding fosfluconazole derivative in DMSO (1 mg/ml). To determine the solubility, four aliquots (0.5, 1, 2, 4 μl) of the standard solution were injected using the same LCMS conditions as for the above exemplary samples.

[3] = H2O/Kleptose HPB (60/40), 4 hours
[4] = H2O/Kleptose HPB (60/40), 1 day
[5] = H2O/Kleptose HPB (60/40), 2 days
[6] = H2O/Kleptose HPB (60/40), 7 days
[7] = H2O/Kleptose HPB (60/40), 14 days
[8] = aqueous with cosolvent or surfactant or cyclodextrin, H2O/Cremophor RH 40 (80/20), 25° C.
[9] = aqueous with cosolvent or surfactant or cyclodextrin, H2O/Kleptose HPB (60/40), 25° C.
[10] = aqueous with cosolvent or surfactant or cyclodextrin, H2O/Vitamin E TPGS (90/10), 25° C.
[11] = aqueous with cosolvent or surfactant or cyclodextrin, H2O/polysorbate 80 (80/20), 25° C.
[12] = oil or lipid, Miglyol 812, 25° C.
[13] = organic solvent or mixture, PEG 400, 25° C.
[14] = water (pH 2), aqueous buffer, H2O (pH = 2), 25° C.
[15] = water (pH 7), aqueous buffer, H2O (pH = 7), 25° C.
[16] = water (pH 10), aqueous buffer, H2O (pH = 10), 25° C.

| weight percentage that remained in solution ([1]; H2O (pH = 2), 4 hours) [% w/w] | weight percentage that remained in solution ([1]; H2O (pH = 2), 1 day) [% w/w] | weight percentage that remained in solution ([1]; H2O (pH = 2), 2 days) [% w/w] | weight percentage that remained in solution ([1]; H2O (pH = 2), 7 days) [% w/w] | weight percentage that remained in solution ([1]; H2O (pH = 2), 14 days) [% w/w] | weight percentage that remained in solution ([1]; H2O (pH = 7), 4 hours) [% w/w] | weight percentage that remained in solution ([1]; H2O (pH = 7), 1 day) [% w/w] | weight percentage that remained in solution ([1]; H2O (pH = 7), 2 days) [% w/w] | weight percentage that remained in solution ([1]; H2O (pH = 7), 7 days) [% w/w] | weight percentage that remained in solution ([1]; H2O (pH = 7), 14 days) [% w/w] | weight percentage that remained in solution ([1]; H2O (pH = 10), 4 hours) [% w/w] | weight percentage that remained in solution ([1]; H2O (pH = 10), 1 day) [% w/w] | weight percentage that remained in solution ([1]; H2O (pH = 10), 2 days) [% w/w] | weight percentage that remained in solution ([1]; H2O (pH = 10), 7 days) [% w/w] | weight percentage that remained in solution ([1]; H2O (pH = 10), 14 days) [% w/w] | weight percentage that remained in solution [1, 3] [% w/w] | weight percentage that remained in solution [1, 4] [% w/w] | weight percentage that remained in solution [1, 5] [% w/w] | weight percentage that remained in solution [1, 6] [% w/w] | weight percentage that remained in solution [1, 7] [% w/w] | Structure (SMILES) | other results |
| --- | --- | --- | --- | --- | --- | --- | --- | --- | --- | --- | --- | --- | --- | --- | --- | --- | --- | --- | --- | --- | --- |
| 99.9 | 100.0 | 99.4 | 99.4 | 99.2 | 99.6 | 99.6 | 54.7 | 99.6 | 99.6 | 99.8 | 100.0 | 99.7 | 100.0 | 100.0 | 99.3 | 98.8 | 98.8 | 98.6 | 99.1 | C[N+](C)(C)CCOP(=O)([O-])OC(Cn1cncn1)(Cn1cncn1)c1ccc(F)cc1F [Example 1, 2-(2,4-difluorophenyl)-1,3-di(1H-1,2,4-triazol-1-yl)propan-2-yl 2-(trimethylammonio)-ethyl phosphate] | weight percentage that remained in solution ([1]; PEG 400, 4 hours): 99.8 % w/w; weight percentage that remained in solution ([1]; PEG 400, 1 day): 100.0 % w/w; weight percentage that remained in solution ([1]; PEG 400, 2 days): 99.8 % w/w; weight percentage that remained in solution ([1]; PEG 400, 7 days): 99.9 % w/w; weight percentage that remained in solution ([1]; PEG 400, 14 days): 100.0 % w/w; solubility at 24 h [2, 8]: > 10000 µg/mL; solubility at 24 h [2, 9]: 4200 µg/mL; solubility at 24 h [2, 10]: 7400 µg/mL; solubility at 24 h [2, 11]: 8300 µg/mL; solubility at 24 h [2, 12]: 400 µg/mL; solubility at 24 h [2, 13]: > 10000 µg/mL; solubility at 24 h [2, 14]: > 10000 µg/mL; solubility at 24 h [2, 15]: 6800 µg/mL; solubility at 24 h [2, 16]: 7500 µg/mL |
| 97.8 | 97.7 | 96.8 | 96.7 | 100.0 | 97.8 | 97.7 | 98.0 | 97.8 | 97.9 | 94.6 | 98.0 | 96.8 | 96.8 | 99.2 | 98.0 | 98.0 | 98.2 | 97.7 | 98.0 | CCCCCCCCCC(=O)OCCOP(=O)([O-])OC(Cn1cncn1)(Cn1cncn1)c1ccc(F)cc1F.[Na+] [Example 2, sodium 2-(decanoyloxy)ethyl 2-(2,4-difluorophenyl)-1,3-di(1H-1,2,4-triazol-1-yl)propan-2-yl phosphate] | weight percentage that remained in solution ([1]; PEG 400, 4 hours): 97.7 % w/w; weight percentage that remained in solution ([1]; PEG 400, 1 day): 97.9 % w/w; weight percentage that remained in solution ([1]; PEG 400, 2 days): 98.1 % w/w; weight percentage that remained in solution ([1]; PEG 400, 7 days): 98.0 % w/w; weight percentage that remained in solution ([1]; PEG 400, 14 days): 98.7 % w/w; solubility at 24 h [2, 8]: > 10000 µg/mL; solubility at 24 h [2, 9]: > 10000 µg/mL; solubility at 24 h [2, 10]: > 10000 µg/mL; solubility at 24 h [2, 11]: > 10000 µg/mL; solubility at 24 h [2, 12]: 5000 µg/mL; solubility at 24 h [2, 13]: > 10000 µg/mL; solubility at 24 h [2, 14]: 6900 µg/mL; solubility at 24 h [2, 15]: > 10000 µg/mL; solubility at 24 h [2, 16]: > 10000 µg/mL |
